The record followed here is ChEMBL document CHEMBL5223117, “Synthesis and biological evaluation of novel N, N'-diarylurea derivatives as potent antibacterial agents against MRSA” (Bioorg Med Chem Lett, 2022).

Each structure is given as a SMILES string. In brackets after ≈: the same amount, converted by molar mass.

By MIC is commonly meant the least concentration at which growth counts as inhibited. A higher MIC goes with weaker potency. In general, MBC refers to the lowest tested concentration that kills the bacteria rather than only halting them. Higher therefore signals less potent killing. A word on the IC50: it is the midpoint of a concentration-inhibition curve. A low value points to inhibition by little substance.

The test system of the first data set is Staphylococcus aureus. Put plainly: Antibacterial activity against vancomycin intermediate and methicillin resistant Staphylococcus aureus ATCC 700699. It is filed as functional.
`O=C(Nc1ccc2c(c1)OC(F)(F)O2)Nc1ccc(Cl)c(C(F)(F)F)c1` gave a minimum inhibitory concentration (MIC) of 0.63 µM (≈ 0.249 µg/mL).
As for `O=C(Nc1ccc(Cl)c(C(F)(F)F)c1)Nc1cc(F)c(F)cc1Cl`, the MIC came out at 0.65 µM (≈ 0.25 µg/mL).

A further data set has as its system Staphylococcus epidermidis. Nature of the data set: Antibacterial activity against methicillin sensitive Staphylococcus epidermidis 17-13. Type of data set: functional.
`O=C(Nc1ccc2c(c1)OC(F)(F)O2)Nc1ccc(Cl)c(C(F)(F)F)c1` returned a minimal inhibitory concentration (MIC) of 1.27 µM (≈ 0.501 µg/mL).
On the same count and under the same terms, to `O=C(Nc1ccc(Cl)c(C(F)(F)F)c1)Nc1cc(F)c(F)cc1Cl` belongs 0.65 µM (≈ 0.25 µg/mL).

In a further data set the test system is Staphylococcus aureus. Nature of the data set: Bactericidal activity against methicillin resistant Staphylococcus aureus ATCC 43300. It is filed as functional.
The compound `O=C(Nc1ccc2c(c1)OC(F)(F)O2)Nc1ccc(Cl)c(C(F)(F)F)c1` registered an MBC of 2.53 µM (≈ 0.999 µg/mL).

For another data set, the system named is Staphylococcus aureus. Put plainly: Antibacterial activity against methicillin sensitive Staphylococcus aureus ATCC 29213. It is filed as functional.
`O=C(Nc1ccc2c(c1)OC(F)(F)O2)Nc1ccc(Cl)c(C(F)(F)F)c1` yielded an MIC of 0.63 µM (≈ 0.249 µg/mL).
Consider `O=C(Nc1ccc(Cl)c(C(F)(F)F)c1)Nc1cc(F)c(F)cc1Cl`, for which it took 1.3 µM (≈ 0.501 µg/mL) to inhibit growth (MIC).

Another data set has as its system Enterococcus faecium. Nature of the data set: Antibacterial activity against Vanomycin-resistant Enterococcus faecium ATCC 700221. Type of data set: functional.
As for `O=C(Nc1ccc2c(c1)OC(F)(F)O2)Nc1ccc(Cl)c(C(F)(F)F)c1`, it took 10.1 µM (≈ 4 µg/mL) to inhibit growth (MIC).
In turn, `O=C(Nc1ccc(Cl)c(C(F)(F)F)c1)Nc1cc(F)c(F)cc1Cl` registered an MIC of 5.19 µM (≈ 2 µg/mL).

The next data set has as its system Staphylococcus aureus. Put plainly: Antibacterial activity against methicillin sensitive Staphylococcus aureus ATCC 33591. It is filed as functional.
In turn, `O=C(Nc1ccc2c(c1)OC(F)(F)O2)Nc1ccc(Cl)c(C(F)(F)F)c1` registered a minimal inhibitory concentration (MIC) of 0.63 µM (≈ 0.249 µg/mL).
On the same count and under the same terms, the value for `O=C(Nc1ccc(Cl)c(C(F)(F)F)c1)Nc1cc(F)c(F)cc1Cl` was 0.65 µM (≈ 0.25 µg/mL).

Test system in a further data set: not listed separately
Put plainly: Cytotoxicity against human HeLa cells by SRB assay. Type of data set: toxicity, cell-based. (In SRB staining, fixed cells bind dye roughly in proportion to their protein.)
Compound `O=C(Nc1ccc2c(c1)OC(F)(F)O2)Nc1ccc(Cl)c(C(F)(F)F)c1` registered an IC50 of 9.02 µM.

Another data set relates to Staphylococcus epidermidis. Put plainly: Antibacterial activity against methicillin resistant Staphylococcus epidermidis 19-1. Type of data set: functional.
Compound `O=C(Nc1ccc2c(c1)OC(F)(F)O2)Nc1ccc(Cl)c(C(F)(F)F)c1` gave a minimal inhibitory concentration (MIC) of 1.27 µM (≈ 0.501 µg/mL).
Still for that read-out and setting: to `O=C(Nc1ccc(Cl)c(C(F)(F)F)c1)Nc1cc(F)c(F)cc1Cl` belongs 1.3 µM (≈ 0.501 µg/mL).

The subject of another data set is Staphylococcus aureus. Nature of the data set: Antibacterial activity against methicillin resistant Staphylococcus aureus ATCC 43300. Type of data set: functional.
Regarding `O=C(Nc1ccc2c(c1)OC(F)(F)O2)Nc1ccc(Cl)c(C(F)(F)F)c1`, it took 0.63 µM (≈ 0.249 µg/mL) to inhibit growth (MIC).
`O=C(Nc1ccc(Cl)c(C(F)(F)F)c1)Nc1cc(F)c(F)cc1Cl` gave a minimal inhibitory concentration (MIC) of 1.3 µM (≈ 0.501 µg/mL).

The next data set has as its system Enterococcus faecalis. Put plainly: Antibacterial activity against Vanomycin-resistant Enterococcus faecalis ATCC 51575. Type of data set: functional.
Regarding `O=C(Nc1ccc2c(c1)OC(F)(F)O2)Nc1ccc(Cl)c(C(F)(F)F)c1`, it took 10.1 µM (≈ 4 µg/mL) to inhibit growth (MIC).
On the same count and under the same terms, to `O=C(Nc1ccc(Cl)c(C(F)(F)F)c1)Nc1cc(F)c(F)cc1Cl` belongs 10.4 µM (≈ 4 µg/mL).

A further data set relates to Staphylococcus aureus. Nature of the data set: Antibacterial activity against methicillin resistant Staphylococcus aureus 20-11. Type of data set: functional.
On to `O=C(Nc1ccc2c(c1)OC(F)(F)O2)Nc1ccc(Cl)c(C(F)(F)F)c1`, for which the minimal inhibitory concentration (MIC) stood at 1.27 µM (≈ 0.501 µg/mL).
On the same count and under the same terms, the value for `O=C(Nc1ccc(Cl)c(C(F)(F)F)c1)Nc1cc(F)c(F)cc1Cl` was 1.3 µM (≈ 0.501 µg/mL).

The next data set relates to Enterococcus faecium. Nature of the data set: Antibacterial activity against Vanomycin-resistant Enterococcus faecium 15-6. It is filed as functional.
As to `O=C(Nc1ccc2c(c1)OC(F)(F)O2)Nc1ccc(Cl)c(C(F)(F)F)c1`, it took 5.07 µM (≈ 2 µg/mL) to inhibit growth (MIC).
The compound `O=C(Nc1ccc(Cl)c(C(F)(F)F)c1)Nc1cc(F)c(F)cc1Cl` had a minimal inhibitory concentration (MIC) of 2.6 µM (≈ 1 µg/mL).

For the next data set, the system named is Staphylococcus aureus. Put plainly: Bactericidal activity against methicillin resistant Staphylococcus aureus ATCC 33591. It is filed as functional.
`O=C(Nc1ccc2c(c1)OC(F)(F)O2)Nc1ccc(Cl)c(C(F)(F)F)c1` yielded an MBC of 2.53 µM (≈ 0.999 µg/mL).

The test system of a further data set is Staphylococcus aureus. Put plainly: Selectivity ratio of MBC for bactericidal activity against methicillin resistant Staphylococcus aureus ATCC 43300 to MIC for antibacterial activity against methicillin resistant Staphylococcus aureus ATCC 43300. It is filed as functional.
On to `O=C(Nc1ccc2c(c1)OC(F)(F)O2)Nc1ccc(Cl)c(C(F)(F)F)c1`, for which the Ratio worked out at 4.

Another data set deals with Enterococcus faecalis. Nature of the data set: Antibacterial activity against Vanomycin-resistant Enterococcus faecalis ATCC 51299. It is filed as functional.
The compound `O=C(Nc1ccc2c(c1)OC(F)(F)O2)Nc1ccc(Cl)c(C(F)(F)F)c1` returned an MIC of 5.07 µM (≈ 2 µg/mL).
For the compound `O=C(Nc1ccc(Cl)c(C(F)(F)F)c1)Nc1cc(F)c(F)cc1Cl`, it took 10.4 µM (≈ 4 µg/mL) to inhibit growth (MIC).

Another data set concerns Staphylococcus aureus. Put plainly: Bactericidal activity against methicillin resistant Staphylococcus aureus 16-30. It is filed as functional.
Take `O=C(Nc1ccc2c(c1)OC(F)(F)O2)Nc1ccc(Cl)c(C(F)(F)F)c1`: the minimal bactericidal concentration (MBC) was 5.07 µM (≈ 2 µg/mL).

The next data set has as its system Staphylococcus epidermidis. Nature of the data set: Antibacterial activity against methicillin resistant Staphylococcus epidermidis 19-2. It is filed as functional.
Turning to `O=C(Nc1ccc2c(c1)OC(F)(F)O2)Nc1ccc(Cl)c(C(F)(F)F)c1`, inhibition of growth (MIC) required 1.27 µM (≈ 0.501 µg/mL).
For `O=C(Nc1ccc(Cl)c(C(F)(F)F)c1)Nc1cc(F)c(F)cc1Cl`, inhibition of growth (MIC) required 0.65 µM (≈ 0.25 µg/mL).

Another data set has as its system Staphylococcus aureus. Nature of the data set: Antibacterial activity against methicillin resistant Staphylococcus aureus ATCC 33591. It is filed as functional.
For `O=C(Nc1ccc2c(c1)OC(F)(F)O2)Nc1ccc(Cl)c(C(F)(F)F)c1`, it took 0.63 µM (≈ 0.249 µg/mL) to inhibit growth (MIC).

Test system in another data set: not listed separately
Nature of the data set: Cytotoxicity against human HepG2 cells by SRB assay. Type of data set: toxicity, cell-based.
In the case of `O=C(Nc1ccc2c(c1)OC(F)(F)O2)Nc1ccc(Cl)c(C(F)(F)F)c1`, the midpoint of inhibition, the IC50, lay at 5.68 µM.

The test system of another data set is Staphylococcus aureus. Nature of the data set: Antibacterial activity against vancomycin intermediate and methicillin resistant Staphylococcus aureus ATCC 700698. It is filed as functional.
Turning to `O=C(Nc1ccc2c(c1)OC(F)(F)O2)Nc1ccc(Cl)c(C(F)(F)F)c1`, the MIC came to 0.63 µM (≈ 0.249 µg/mL).
Still for that read-out and setting: the value for `O=C(Nc1ccc(Cl)c(C(F)(F)F)c1)Nc1cc(F)c(F)cc1Cl` was 1.3 µM (≈ 0.501 µg/mL).

The subject of a further data set is Enterococcus faecium. Nature of the data set: Antibacterial activity against Vanomycin-resistant Enterococcus faecium ATCC 51559. Type of data set: functional.
`O=C(Nc1ccc2c(c1)OC(F)(F)O2)Nc1ccc(Cl)c(C(F)(F)F)c1` displayed an MIC of 10.1 µM (≈ 4 µg/mL).
The same measure, in the same setting: to `O=C(Nc1ccc(Cl)c(C(F)(F)F)c1)Nc1cc(F)c(F)cc1Cl` belongs 5.19 µM (≈ 2 µg/mL).

Another data set deals with Staphylococcus aureus. Nature of the data set: Selectivity ratio of MBC for bactericidal activity against methicillin resistant Staphylococcus aureus ATCC 33591 to MIC for antibacterial activity against methicillin resistant Staphylococcus aureus ATCC 33591. Type of data set: functional.
Turning to `O=C(Nc1ccc2c(c1)OC(F)(F)O2)Nc1ccc(Cl)c(C(F)(F)F)c1`, the Ratio came out at 4.

The next data set relates to Staphylococcus epidermidis. Nature of the data set: Antibacterial activity against methicillin sensitive Staphylococcus epidermidis ATCC 12228. It is filed as functional.
The compound `O=C(Nc1ccc2c(c1)OC(F)(F)O2)Nc1ccc(Cl)c(C(F)(F)F)c1` had a minimal inhibitory concentration (MIC) of 1.27 µM (≈ 0.501 µg/mL).
On the same count and under the same terms, the value for `O=C(Nc1ccc(Cl)c(C(F)(F)F)c1)Nc1cc(F)c(F)cc1Cl` was 1.3 µM (≈ 0.501 µg/mL).

Another data set deals with Staphylococcus aureus. Put plainly: Antibacterial activity against methicillin resistant Staphylococcus aureus 16-30. It is filed as functional.
On to `O=C(Nc1ccc2c(c1)OC(F)(F)O2)Nc1ccc(Cl)c(C(F)(F)F)c1`, for which it took 0.63 µM (≈ 0.249 µg/mL) to inhibit growth (MIC).

In another data set the test system is Staphylococcus aureus. Put plainly: Antibacterial activity against methicillin sensitive Staphylococcus aureus 20-12. It is filed as functional.
In the case of `O=C(Nc1ccc2c(c1)OC(F)(F)O2)Nc1ccc(Cl)c(C(F)(F)F)c1`, inhibition of growth (MIC) required 1.27 µM (≈ 0.501 µg/mL).
Still for that read-out and setting: the value for `O=C(Nc1ccc(Cl)c(C(F)(F)F)c1)Nc1cc(F)c(F)cc1Cl` was 1.3 µM (≈ 0.501 µg/mL).

Another data set deals with Staphylococcus aureus. Put plainly: Selectivity ratio of MBC for bactericidal activity against methicillin resistant Staphylococcus aureus 16-30 to MIC for antibacterial activity against methicillin resistant Staphylococcus aureus 16-30. It is filed as functional.
On to `O=C(Nc1ccc2c(c1)OC(F)(F)O2)Nc1ccc(Cl)c(C(F)(F)F)c1`, for which the Ratio came out at 8.

The subject of the next data set is Staphylococcus aureus. Put plainly: Antibacterial activity against methicillin resistant Staphylococcus aureus 18-2. It is filed as functional.
The compound `O=C(Nc1ccc2c(c1)OC(F)(F)O2)Nc1ccc(Cl)c(C(F)(F)F)c1` came in with an MIC of 1.27 µM (≈ 0.501 µg/mL).
Still for that read-out and setting: to `O=C(Nc1ccc(Cl)c(C(F)(F)F)c1)Nc1cc(F)c(F)cc1Cl` belongs 1.3 µM (≈ 0.501 µg/mL).

A further data set has as its system Staphylococcus aureus. Nature of the data set: Antibacterial activity against methicillin sensitive Staphylococcus aureus 15. It is filed as functional.
Take `O=C(Nc1ccc2c(c1)OC(F)(F)O2)Nc1ccc(Cl)c(C(F)(F)F)c1`: the MIC is 0.63 µM (≈ 0.249 µg/mL).
In turn, `O=C(Nc1ccc(Cl)c(C(F)(F)F)c1)Nc1cc(F)c(F)cc1Cl` returned an MIC of 1.3 µM (≈ 0.501 µg/mL).
